Our source for the T/C values is PubChem BioAssay AID248 (DTP/NCI, 2004).

“And” between values parts separate entries of the source, which are not always exact repeats. Equal values may be shown once. Toxic doses and inconclusive results are not listed.

This experiment concerns L1210 leukemia ip in BDF1 mice, survival T/C. In words: NCI In Vivo Anticancer Drug Screen. Data for tumor model L1210 Leukemia (intraperitoneal) in B6D2F1 (BDF1) mice. The conditions noted are these: endpoint: mean survival time, higher = longer survival. The method in brief:
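Tumor cells were implanted, animals were treated, and survival was followed. The result divides the treated measurement by the vehicle-control measurement.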

Where [1] appears, read: dose: 100.0 mg/kg/injection, schedule: Q01DX001 (ip), vehicle: saline.
The mark [2] stands for this setting: dose: 200.0 mg/kg/injection, schedule: Q01DX001 (ip), vehicle: saline.
The mark [3] stands for this setting: dose: 400.0 mg/kg/injection, schedule: Q01DX001 (ip), vehicle: saline.
The mark [4] stands for this setting: dose: 100.0 mg/kg/injection, schedule: Q01DX009 (ip), vehicle: saline with Tween-80.
The mark [5] stands for this setting: dose: 200.0 mg/kg/injection, schedule: Q01DX009 (ip), vehicle: saline with Tween-80.
The mark [6] stands for this setting: dose: 100.0 mg/kg/injection, schedule: Q01DX009 (ip), vehicle: Klucel (hydroxypropylcellulose) (HPC).
The mark [7] stands for this setting: dose: 100.0 mg/kg/injection, schedule: Q04DX003 (ip), vehicle: Klucel (hydroxypropylcellulose) (HPC).
Setting [8] is: dose: 200.0 mg/kg/injection, schedule: Q04DX003 (ip), vehicle: Klucel (hydroxypropylcellulose) (HPC).
[9] abbreviates: dose: 100.0 mg/kg/injection, schedule: Q04DX003 (ip), vehicle: saline.
The mark [10] stands for this setting: dose: 200.0 mg/kg/injection, schedule: Q04DX003 (ip), vehicle: saline.
Setting [11] is: dose: 400.0 mg/kg/injection, schedule: Q04DX003 (ip), vehicle: saline.

With `CC1C2COCC2CC2OC21` (stereo not drawn), the T/C was 124 % of control (dose: 50.0 mg/kg/injection, schedule: Q01DX001 (ip), vehicle: saline sonified); 109 % of control (dose: 100.0 mg/kg/injection, schedule: Q01DX001 (ip), vehicle: saline sonified); 102 % of control (dose: 200.0 mg/kg/injection, schedule: Q01DX001 (ip), vehicle: saline sonified).

As for `CCSCC1OC2OC(C)(C)OC2C1O` (stereo not drawn), the T/C under setting [1] is 97 % of control, the T/C under setting [2] is 111 % of control and the T/C under setting [3] was 97 % of control.

As for `COc1cc(/C=N/NC(=O)c2ccncc2)cc(OC)c1OC`, the T/C reads like this: under setting [4], 112 % of control; (dose: 100.0 mg/kg/injection, schedule: Q04DX003 (ip), vehicle: saline with Tween-80) 111 % of control; under setting [5], 101 % of control; (dose: 200.0 mg/kg/injection, schedule: Q04DX003 (ip), vehicle: saline with Tween-80) 118 % of control; (dose: 400.0 mg/kg/injection, schedule: Q01DX009 (ip), vehicle: saline with Tween-80) 98 % of control; (dose: 400.0 mg/kg/injection, schedule: Q04DX003 (ip), vehicle: saline with Tween-80) 100 % of control.

`CCOC(=O)c1ccc(N=Cc2cc(Cl)cc(Cl)c2O)cc1`: the T/C is, setting by setting: under setting [1], 95 % of control; under setting [2], 100 % of control; under setting [3], 93 % of control.

Regarding `CN(C)C=O.CN(C)C=O.[Cl][Sn]([Cl])([Cl])[Cl]`, the T/C by setting is: (dose: 50.0 mg/kg/injection, schedule: Q01DX009 (ip), vehicle: Klucel (hydroxypropylcellulose) (HPC)) 103 % of control; under setting [6], 93 % of control; under setting [7], 92 % of control; under setting [8], 92 % of control.

With `Clc1ncn[nH]1`, the T/C (dose: 100.0 mg/kg/injection, schedule: Q04DX003 (ip), vehicle: saline sonified) was 101 % of control; the T/C (dose: 200.0 mg/kg/injection, schedule: Q04DX003 (ip), vehicle: saline sonified) was 106 % of control; the T/C (dose: 400.0 mg/kg/injection, schedule: Q04DX003 (ip), vehicle: saline sonified) was 100 % of control.

On to `O=C(NNC1CCCCC1)c1ccccc1`, for which the T/C by setting is: (dose: 100.0 mg/kg/injection, schedule: Q04DX003 (ip), vehicle: acetone) 107 % of control; (dose: 200.0 mg/kg/injection, schedule: Q04DX003 (ip), vehicle: acetone) 109 % of control; (dose: 400.0 mg/kg/injection, schedule: Q04DX003 (ip), vehicle: acetone) 86 % of control.

Take `O=CNC(Cc1ccc(O)cc1)C(=O)O` (stereo not drawn): the T/C runs as follows: under setting [9], 95 % of control; under setting [10], 91 % of control; under setting [11], 93 % of control.

`CC(C)N(c1ccc(C(=O)O)cc1)C(C)C`: the T/C runs as follows: (dose: 100.0 mg/kg/injection, schedule: Q01DX009 (ip), vehicle: carboxymethylcellulose (CMC)) 102 % of control and 109 % of control; (dose: 100.0 mg/kg/injection, schedule: Q04DX002 (ip), vehicle: carboxymethylcellulose (CMC)) 96 % of control and 98 % of control; (dose: 100.0 mg/kg/injection, schedule: Q04DX003 (ip), vehicle: carboxymethylcellulose (CMC)) 101 % of control; (dose: 200.0 mg/kg/injection, schedule: Q01DX009 (ip), vehicle: carboxymethylcellulose (CMC)) 102 % of control and 103 % of control; (dose: 200.0 mg/kg/injection, schedule: Q04DX002 (ip), vehicle: carboxymethylcellulose (CMC)) 95 % of control and 104 % of control; (dose: 200.0 mg/kg/injection, schedule: Q04DX003 (ip), vehicle: carboxymethylcellulose (CMC)) 98 % of control. Also, the T/C by setting is: (dose: 400.0 mg/kg/injection, schedule: Q01DX009 (ip), vehicle: carboxymethylcellulose (CMC)) 95 % of control and 97 % of control; (dose: 400.0 mg/kg/injection, schedule: Q04DX002 (ip), vehicle: carboxymethylcellulose (CMC)) 93 % of control and 86 % of control; (dose: 400.0 mg/kg/injection, schedule: Q04DX003 (ip), vehicle: carboxymethylcellulose (CMC)) 97 % of control.

On to `O=C(O)c1cccc2ccccc12`, for which the T/C is, setting by setting: under setting [4], 89 % of control; under setting [5], 100 % of control.

With `CN(C=O)c1ccc(C(=O)NC(CC(=O)O)CC(=O)O)cc1`, the T/C was 111 % of control under setting [1], 94 % of control under setting [2] and 103 % of control under setting [3].

Turning to `COc1cccc(-c2c(C(=O)OC(C)(C)C)cc(O)c3ccc(OC)cc23)c1`, the T/C was 97 % of control (dose: 100.0 mg/kg/injection, schedule: Q01DX001 (ip), vehicle: carboxymethylcellulose (CMC)); 96 % of control (dose: 200.0 mg/kg/injection, schedule: Q01DX001 (ip), vehicle: carboxymethylcellulose (CMC)); 97 % of control (dose: 400.0 mg/kg/injection, schedule: Q01DX001 (ip), vehicle: carboxymethylcellulose (CMC)).

With `CCOC(=O)C(Cc1ccc(O)c(N(CCO)CCO)c1)N1C(=O)c2ccccc2C1=O` (stereo not drawn), the T/C is 101 % of control under setting [1] and 112 % of control under setting [2].

For the compound `Nc1ccc(N=Nc2ccc(S(N)(=O)=O)cc2)cn1`, the T/C was 97 % of control (dose: 50.0 mg/kg/injection, schedule: Q01DX001 (ip), vehicle: other); 94 % of control (dose: 100.0 mg/kg/injection, schedule: Q01DX001 (ip), vehicle: other); 103 % of control (dose: 200.0 mg/kg/injection, schedule: Q01DX001 (ip), vehicle: other); 100 % of control (dose: 400.0 mg/kg/injection, schedule: Q01DX001 (ip), vehicle: other).

In the case of `CC1=CP(=O)(Oc2ccc([N+](=O)[O-])cc2)CC1` (stereo not drawn), the T/C (dose: 75.0 mg/kg/injection, schedule: Q01DX001 (ip), vehicle: saline) was 102 % of control.

As for `Cc1cc2cc3n(c2nn1)N=C(Cl)CC3`, the T/C runs as follows: (dose: 80.0 mg/kg/injection, schedule: Q04DX002 (ip), vehicle: Klucel (hydroxypropylcellulose) (HPC)) 106 % of control; (dose: 160.0 mg/kg/injection, schedule: Q04DX002 (ip), vehicle: Klucel (hydroxypropylcellulose) (HPC)) 118 % of control; (dose: 320.0 mg/kg/injection, schedule: Q04DX002 (ip), vehicle: Klucel (hydroxypropylcellulose) (HPC)) 168 % of control.

In the case of `C=NNc1nc2ccccc2s1`, the T/C runs as follows: (dose: 100.0 mg/kg/injection, schedule: Q04DX003 (ip), vehicle: gum acacia) 96 % of control; (dose: 200.0 mg/kg/injection, schedule: Q04DX003 (ip), vehicle: gum acacia) 88 % of control.

Take `CCOC(=O)OC1CC/C(=N\N=C(N)N)C1` (stereo not drawn): the T/C is, setting by setting: (dose: 15.0 mg/kg/injection, schedule: Q01DX Z (ip), vehicle: methylcellulose (MC)) 110 % of control; (dose: 30.0 mg/kg/injection, schedule: Q01DX Z (ip), vehicle: methylcellulose (MC)) 96 % of control; (dose: 120.0 mg/kg/injection, schedule: Q01DX Z (ip), vehicle: methylcellulose (MC)) 92 % of control.

Regarding `COC(=O)C(C)=C1CCCCC1`, the T/C is, setting by setting: (dose: 100.0 mg/kg/injection, schedule: Q01DX009 (ip), vehicle: saline) 106 % of control; under setting [9], 93 % of control; (dose: 200.0 mg/kg/injection, schedule: Q01DX009 (ip), vehicle: saline) 96 % of control; under setting [10], 98 % of control; (dose: 400.0 mg/kg/injection, schedule: Q01DX009 (ip), vehicle: saline) 96 % of control; under setting [11], 95 % of control.

`Cc1ccc(C(=O)C(c2ccccc2)C(Cl)c2ccccc2)cc1` (stereo not drawn): the T/C reads like this: under setting [6], 98 % of control; under setting [7], 92 % of control; (dose: 200.0 mg/kg/injection, schedule: Q01DX009 (ip), vehicle: Klucel (hydroxypropylcellulose) (HPC)) 104 % of control; under setting [8], 98 % of control; (dose: 400.0 mg/kg/injection, schedule: Q01DX009 (ip), vehicle: Klucel (hydroxypropylcellulose) (HPC)) 92 % of control; (dose: 400.0 mg/kg/injection, schedule: Q04DX003 (ip), vehicle: Klucel (hydroxypropylcellulose) (HPC)) 102 % of control.

Consider `NC1C2CC3CC(C2)CC1C3` (stereo not drawn), for which the T/C was 102 % of control (dose: 5.0 mg/kg/injection, schedule: Q01DX001 (ip), vehicle: saline); 98 % of control (dose: 10.0 mg/kg/injection, schedule: Q01DX001 (ip), vehicle: saline); 107 % of control (dose: 20.0 mg/kg/injection, schedule: Q01DX001 (ip), vehicle: saline); 96 % of control (dose: 40.0 mg/kg/injection, schedule: Q01DX001 (ip), vehicle: saline); 93 % of control (dose: 75.0 mg/kg/injection, schedule: Q01DX001 (ip), vehicle: other); 96 % of control (dose: 80.0 mg/kg/injection, schedule: Q01DX001 (ip), vehicle: saline).
